Converted amounts (≈) assume the structure as drawn.
How the values were obtained:
Fusarium graminearum [1] = test: Fungicidal activity against carbendazim-resistant Fusarium graminearum isolate; assay type: functional, organism-based
Fusarium graminearum [2] = test: Fungicidal activity against compound-resistant Fusarium graminearum isolate; assay type: functional, organism-based

CCOC(=O)/C(C#N)=C(/N)c1ccccc1
EC50 (Fusarium graminearum [1]): 0.115 µg/mL (≈ 0.532 µM) | EC50 (Fusarium graminearum [2]): 0.14 µg/mL (≈ 0.647 µM)
